Structures are written as SMILES. “And” between values parts separate entries of the source, which are not always exact repeats. Equal entries are not always repeated.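 Grown in 96-well plates, cells were treated for 48 hours with each compound at five concentrations. Insufficient inhibition: endpoint recorded as highest concentration tested. Abbreviation: GI50, concentration required for 50% inhibition of growth. TGI marks complete inhibition of growth.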

We go through 9 compounds from PubChem BioAssay (NCI).

Some test systems named below: A549 NSCLC; HCT-15 colon; KM12 colon; NCI-H23 lung; NCI-H522 lung; SF-539 CNS; SK-OV-3 ovarian; SN12C renal; SNB-19 CNS; SW-620 colon.
What all share (assay): DTP human tumour cell line panel, 48 h

`O=C(N/N=C/c1cc([N+](=O)[O-])ccc1O)c1cccc2ccccc12`: the GI50 (in general, the concentration at which growth is held to half of that of the control) in the experiment on A549 NSCLC was 4.56 µM; with HCT-15 colon, 2.55 µM; with KM12 colon, 4.66 µM; with NCI-H23 lung it was 4.68 µM; in the experiment on NCI-H522 lung, 3.47 µM; in the experiment with SF-539 CNS, 3.8 µM. Further, the GI50 is 4 µM with SK-OV-3 ovarian, 6.62 µM in the experiment on SN12C renal, 7.65 µM in the experiment on SNB-19 CNS and 3.7 µM in the experiment with SW-620 colon. Further, the TGI (usually the concentration giving total growth inhibition) in the experiment on A549 NSCLC is > 100 µM; with HCT-15 colon, > 100 µM; in the experiment with KM12 colon it was > 100 µM; in the experiment with NCI-H23 lung, > 100 µM; with NCI-H522 lung, 22 µM; in the experiment on SF-539 CNS it was 24.2 µM. In addition, the concentration for total growth inhibition (TGI) is 33.3 µM in the experiment on SK-OV-3 ovarian, > 100 µM with SN12C renal, > 100 µM in the experiment with SNB-19 CNS and > 100 µM in the experiment with SW-620 colon.

For `CSc1ccccc1C#Cc1ccccc1C#CCCCCO`, the GI50 in the experiment with A549 NSCLC is 12.6 µM; in the experiment with HCT-15 colon, 3.85 µM; in the experiment with KM12 colon, 3.39 µM; in the experiment on NCI-H23 lung it was 15.7 µM; in the experiment with NCI-H522 lung, 14.2 µM; in the experiment with SF-539 CNS, 13.5 µM. In addition, the GI50 in the experiment with SK-OV-3 ovarian was 15.8 µM; in the experiment with SN12C renal it was 16 µM; in the experiment on SNB-19 CNS it was 17.8 µM; with SW-620 colon it was 11 µM. Moreover, the TGI in the experiment on A549 NSCLC was 27.1 µM; in the experiment with HCT-15 colon, 15.9 µM; in the experiment on KM12 colon, 16.9 µM; with NCI-H23 lung it was 33 µM; in the experiment on NCI-H522 lung, 29.4 µM; in the experiment on SF-539 CNS it was 27.2 µM. For the same compound, the TGI with SK-OV-3 ovarian is 30.1 µM; in the experiment with SN12C renal, 30.7 µM; in the experiment on SNB-19 CNS it was 33.5 µM; in the experiment on SW-620 colon it was 26.2 µM.

With `CS/C(=N\c1nccs1)NC(=O)c1cccc(Cl)c1`, the TGI in the experiment with A549 NSCLC, with HCT-15 colon, with KM12 colon, in the experiment with NCI-H23 lung, in the experiment with NCI-H522 lung and in the experiment on SF-539 CNS was > 100 µM throughout. The TGI with SK-OV-3 ovarian, in the experiment on SN12C renal, with SNB-19 CNS and with SW-620 colon was > 100 µM each time.

As for `O=C(CCc1cc(-c2ccccc2)nc(=S)[nH]1)Nc1ccccc1[N+](=O)[O-]`, the TGI in the experiment with A549 NSCLC, with HCT-15 colon, with KM12 colon, in the experiment on NCI-H23 lung, with NCI-H522 lung and in the experiment on SF-539 CNS was > 100 µM in each case. The TGI in the experiment on SK-OV-3 ovarian, with SN12C renal, with SNB-19 CNS and in the experiment on SW-620 colon was > 100 µM each time.

For the compound `Nc1nc(N)c(N=O)c(OCC2CCCCC2)n1`, the GI50 was 15 µM in the experiment with A549 NSCLC; 9.71 µM with NCI-H23 lung; 10 µM in the experiment with NCI-H522 lung; 15.6 µM in the experiment on SF-539 CNS; 27.9 µM with SK-OV-3 ovarian; 5.87 µM in the experiment with SN12C renal. In the experiment on SW-620 colon, the GI50 was 20.4 µM. The TGI with A549 NSCLC was > 100 µM and 79.7 µM; in the experiment on HCT-15 colon it was > 100 µM; in the experiment with KM12 colon, > 100 µM; with NCI-H23 lung, > 100 µM; in the experiment with NCI-H522 lung, > 73.3 µM and 50.7 µM; in the experiment on SF-539 CNS, 56.1 µM and 36.5 µM. The TGI was > 80.9 µM and 74.3 µM with SK-OV-3 ovarian; > 100 µM and 62.8 µM in the experiment with SN12C renal; > 100 µM with SNB-19 CNS; > 100 µM with SW-620 colon.

In the case of `O=C(OCCBr)c1ccc(Cl)c([N+](=O)[O-])c1`, the GI50 is 17.7 µM in the experiment on A549 NSCLC; 16.3 µM in the experiment on HCT-15 colon; 5 µM in the experiment with KM12 colon; 11.2 µM in the experiment on NCI-H23 lung; 0.957 µM in the experiment with NCI-H522 lung; 19.6 µM with SF-539 CNS. The GI50 in the experiment with SK-OV-3 ovarian is 17.2 µM; in the experiment with SN12C renal, 17.1 µM; in the experiment on SNB-19 CNS it was 1.87 µM; in the experiment with SW-620 colon, 14.6 µM. Besides, the TGI was determined as 35.4 µM in the experiment with A549 NSCLC; 32.4 µM with HCT-15 colon; 10.9 µM in the experiment on KM12 colon; 27.2 µM in the experiment with NCI-H23 lung; 3.04 µM in the experiment with NCI-H522 lung; 36 µM in the experiment with SF-539 CNS. The TGI came out at 31 µM in the experiment with SK-OV-3 ovarian, 33.2 µM in the experiment with SN12C renal, 3.74 µM in the experiment on SNB-19 CNS and 30.2 µM in the experiment with SW-620 colon.

Take `N#Cc1cc([N+](=O)[O-])ccc1NC(=O)/C(=N/N)C(C(=O)c1ccc(Cl)c(Cl)c1)C1OC(=O)c2ccccc21` (configuration not stated): the TGI in the experiment with A549 NSCLC, in the experiment on HCT-15 colon, in the experiment on KM12 colon, in the experiment with NCI-H23 lung, in the experiment with NCI-H522 lung and in the experiment on SF-539 CNS was > 100 µM throughout. Besides, the TGI in the experiment with SK-OV-3 ovarian, in the experiment with SN12C renal, with SNB-19 CNS and in the experiment on SW-620 colon was > 100 µM in each case.

Regarding `C=CCNC(=O)NCCCC(NC(C)=O)C(=O)NCc1ccccc1` (configuration not stated), the TGI with A549 NSCLC, with HCT-15 colon, with KM12 colon, in the experiment on NCI-H23 lung, in the experiment on NCI-H522 lung and in the experiment on SF-539 CNS was > 100 µM each time. Further, the concentration for total growth inhibition (TGI) in the experiment with SK-OV-3 ovarian, in the experiment on SN12C renal, in the experiment on SNB-19 CNS and in the experiment with SW-620 colon was > 100 µM in each case.

For the compound `O=C(CCCSc1nc(-c2ccccc2)cc(-c2ccc(Cl)cc2)n1)NO`, the GI50 in the experiment with A549 NSCLC is 2.31 µM; with HCT-15 colon, 0.382 µM; in the experiment with KM12 colon, 2.96 µM; with NCI-H23 lung, 2.44 µM; in the experiment with NCI-H522 lung, 1.96 µM; in the experiment on SF-539 CNS it was 1.61 µM. Besides, the GI50 is 3.12 µM in the experiment on SK-OV-3 ovarian, 1.18 µM with SN12C renal, 3.12 µM with SNB-19 CNS and 1.66 µM with SW-620 colon. In addition, the TGI amounted to 12.4 µM in the experiment on A549 NSCLC; 13.5 µM with HCT-15 colon; 14.2 µM with KM12 colon; 10.6 µM in the experiment with NCI-H23 lung; 10.4 µM in the experiment on NCI-H522 lung; 4.06 µM in the experiment on SF-539 CNS. Also, the TGI in the experiment with SK-OV-3 ovarian worked out at 12.4 µM; with SN12C renal it was 7.72 µM; in the experiment on SNB-19 CNS, 14.9 µM; in the experiment on SW-620 colon, 13 µM.
